Source: US20110160265A1, “METHOD OF TREATING MOTOR DISORDERS WITH ALPHA-2B ADRENERGIC RECEPTOR AGONISTS” (priority 2007, published 2011)

Key:
mice [1] = assay: Amphetamine-induced hyperlocomotion (open field); format: in vivo; conditions: drug 2 amphetamine SC
Procedure: Table 2, below, indicates the locomotor responses of mice treated with various combinations of alpha-2B receptor agonists and the psychostimulant amphetamine. Drug 1 was administered 30 minutes after the animal was placed in the open field. Drug 2 was administered subcutaneously (SC) at 45 minutes after the animal was placed in the open field (15 minutes after drug 1). AUC indicates the total amount of locomotor activity after administration of drug 2. “% decrease activity” indicates the percentage decrease in total activity relative to the Vehicle+Amphetamine group. ° indicates significant difference (P<0.05) relative to Vehicle+Amphetamine treated animals. * indicates significant difference (P<0.05) relative to Vehicle+Vehicle treated animals.
(§1) Amphetamine- or cocaine-induced hyperactivity. Mice were placed in an open field apparatus (FlexField, San Diego Instruments, San Diego, Calif.). After 30 minutes of habituation, they received a vehicle or haloperidol injection or injection of alpha-2B receptor agonist followed by an injection of amphetamine (2 mg/kg, s.c.) or cocaine (10 mg/kg, i.p.) at minute 45. Their activity levels were subsequently measured for another 1 hour post-injection. Total activity over each 5 minute bin (21 total bins) was added to establish activity curve over the 105 minute testing.
(§2) For i.p. administration, the compounds are formulated in H2O with 0.5% DMSO and given in a volume of 1 ml/kg body weight by injecting into the intraperitoneal cavity. For p.o. administration, the compounds are formulated in H2O with 0.5% DMSO and given in a volume of 2 ml/kg body weight using a 25-gauge, 1.5 inch gavage needle that is slowly inserted through the esophagus into the stomach.

[2] = tested on: nigrostriatal-lesioned rats; assay: Nigrostriatal-lesion-induced rotational behavior following amphetamine administration; format: in vivo; conditions: relative to Vehicle+Amphetamine, drug 2 amphetamine SC
Procedure: Table 4, below, indicates the changes in rotational behavior in nigrostriatal-lesioned rats treated with various alpha-2B receptor agonists and the psychostimulant amphetamine. Drug 1 was administered 15 minutes before amphetamine, and 10 minutes post-amphetamine, the animals were placed into the rotometer for 30 or 60 minutes. “% decrease rotations” indicates the percentage decrease in total rotations relative to the Vehicle+Amphetamine group. ^⋄ indicates significant difference (P<0.05) relative to Vehicle+Amphetamine treated animals. * indicates significant difference (P<0.05) relative to Vehicle+Vehicle treated animals.
Amphetamine-induced rotational behavior. Pre-Apomorphine-screened (rotated) rats (with lesions ≧95% DA cell loss) were purchased from Charles Rivers Laboratories. Animals were given ˜4 days to acclimate prior to testing. All animals weighted 250-300 g at the beginning of the study. Animals were treated with various combinations of vehicle or alpha-2B receptor agonist and amphetamine.
Vehicle or alpha-2B receptor agonist was administered (p.o.) 15 minutes before amphetamine (2 mg/kg s.c.). Rotational behavior was assessed 15 minutes post-amphetamine administration and was monitored for 60 minutes using a Rotometer system from San Diego Instruments (San Diego, Calif.).
as §2

alpha-2A receptor = target: T1, alpha-2A receptor (Homo sapiens, UniProt P08913); assay: Alpha-2A receptor activity (efficacy relative to brimonidine); format: cell-based; conditions: in words; b7: lacks significant activity = less than 40% of the efficacy of brimonidine at alpha-2A
T1 sequence (P08913 1-465): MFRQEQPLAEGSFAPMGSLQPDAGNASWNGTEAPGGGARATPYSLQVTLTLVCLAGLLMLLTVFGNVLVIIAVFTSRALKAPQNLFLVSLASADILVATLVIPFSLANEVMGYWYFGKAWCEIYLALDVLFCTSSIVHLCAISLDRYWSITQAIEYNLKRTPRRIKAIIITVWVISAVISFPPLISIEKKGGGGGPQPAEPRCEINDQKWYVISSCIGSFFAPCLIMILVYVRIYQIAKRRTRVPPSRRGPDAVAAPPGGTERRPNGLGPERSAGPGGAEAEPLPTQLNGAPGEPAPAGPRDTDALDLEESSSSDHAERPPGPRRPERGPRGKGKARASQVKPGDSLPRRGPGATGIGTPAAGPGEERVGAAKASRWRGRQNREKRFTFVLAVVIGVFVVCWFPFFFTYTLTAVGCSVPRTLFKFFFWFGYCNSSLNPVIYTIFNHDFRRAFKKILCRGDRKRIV
Excerpt: The methods of the present invention use alpha-2 agonists lacking significant activity at the alpha-2A receptor subtype. An agonist lacks significant alpha-2A receptor activity if the agonist has less than 40% of the efficacy of brimonidine at the alpha-2A receptor subtype. Compounds of the invention include, therefore, alpha-2B receptor agonists lacking significant alpha-2A activity; alpha 2B/2C receptor agonists lacking significant alpha-2A activity; and alpha-2C receptor agonists lacking significant alpha-2A activity.
Efficacy, also known as intrinsic activity, is a measure of maximal receptor activation achieved by a compound and can be determined using any accepted assay of alpha-adrenergic receptor activation, such as a cAMP or Receptor Selection and Amplification Technology (RSAT). Efficacy is represented as a ratio or percentage of the maximal effect of the drug to the maximal effect of a standard agonist for each receptor subtype. Brimonidine, itself an alpha-2B receptor agonist (it is has 100% the efficacy of brimonidine at the alpha-2B adrenergic receptor), is used as the standard agonist for the alpha-2B adrenergic receptors.
Agonist activity can be characterized using any of a variety of routine assays, including, for example, Receptor Selection and Amplification Technology (RSAT) assays (Messier et al., Pharmacol. Toxicol. 76:308-11 (1995); cyclic AMP assays (Shimizu et al., J. Neurochem. 16:1609-1619 (1969)); and cytosensor microphysiometry assays (Neve et al., J. Biol. Chem. 267:25748-25753 (1992)). Such assays generally are performed using cells that naturally express only a single alpha-adrenergic receptor subtype, or using transfected cells expressing a single recombinant alpha-adrenergic receptor subtype. The adrenergic receptor can be a human receptor or homolog of a human receptor having a similar pharmacology.
The RSAT assay measures receptor-mediated loss of contact inhibition resulting in selective proliferation of receptor-containing cells in a mixed population of confluent cells. The increase in cell number is assessed with an appropriate detectable marker gene such as beta-galactosidase, if desired, in a high throughput or ultra high throughput assay format. Receptors that activate the G protein, Gq, elicit the proliferative response. Alpha-adrenergic receptors, which normally couple to Gi, activate the RSAT response when coexpressed with a hybrid Gq protein containing a Gi receptor recognition domain, designated Gq/i5. Conklin et al., Nature 363:274-6 (1993)).
As an example, an RSAT assay can be performed essentially as follows. NIH-3T3 cells are plated at a density of 2×10^6 cells in 15 cm dishes and maintained in Dulbecco's modified Eagle's medium supplemented with 10% calf serum. One day later, cells are cotransfected by calcium phosphate precipitation with mammalian expression plasmids encoding p-SV-β-galactosidase (5-10 μg), receptor (1-2 μg) and G protein (1-2 μg). Carrier DNA, for example 40 μg salmon sperm DNA, also can be included to increase transfection efficiency. Fresh media is added on the following day; one to two days later, cells are harvested and frozen in 50 assay aliquots. Transfected cells are thawed, and 100 μl of cells added to 100 μl aliquots of compound to be tested, with various concentrations assayed in triplicate, for example, in 96-well plates. Incubation continues for 72 to 96 hours at 37° C. After washing with phosphate-buffered saline, β-galactosidase activity is determined by adding 200 μl of chromogenic substrate (3.5 mM O-nitrophenyl-β-D-galactopyranoside/0.5% NP-40 in phosphate buffered saline), incubating overnight at 30° C., and measuring optical density at 420 nm. The absorbancy is a measure of enzyme activity, which depends on cell number and reflects receptor-mediated cell proliferation. The EC50 and maximal effect (i.e., efficacy) of each drug at each receptor is determined.

mice [3] = assay: Cocaine-induced hyperlocomotion (open field); format: in vivo; conditions: drug 2 cocaine SC; for % DECREASE ACTIVITY: relative to Vehicle+Cocaine
Procedure: Table 3, below, indicates the locomotor responses of mice treated with various combinations of alpha-2B receptor agonists and the psychostimulant cocaine. Drug 1 was administered 30 minutes after the animal was placed in the open field. Drug 2 was administered subcutaneously (SC) at 45 minutes after the animal was placed in the open field (15 minutes after drug 1). AUC indicates the total amount of locomotor activity after administration of drug 2. “% decrease activity” indicates the percentage decrease in total activity relative to the Vehicle+Cocaine group. ° indicates significant difference (P<0.05) relative to Vehicle+Cocaine treated animals. * indicates significant difference (P<0.05) relative to Vehicle+Vehicle treated animals.
as §1, §2

S=c1[nH]cc(CC2CC=CC2)[nH]1 [Compound D]
% DECREASE ACTIVITY REL TO VEH + AMPH (mice [1]; drug 1 0.01 mg/kg PO): 14% * | TOTAL ACTIVITY POST-AMPHETAMINE (AUC) (mice [1]; drug 1 0.01 mg/kg PO): 10664.0 ± 786.2 | % DECREASE ACTIVITY REL TO VEH + AMPH (mice [1]; drug 1 0.03 mg/kg PO): 51% ^⋄ | TOTAL ACTIVITY POST-AMPHETAMINE (AUC) (mice [1]; drug 1 0.03 mg/kg PO): 5987.5 ± 1369. | % DECREASE ACTIVITY REL TO VEH + AMPH (mice [1]; drug 1 0.1 mg/kg PO): 43% ^⋄ * | TOTAL ACTIVITY POST-AMPHETAMINE (AUC) (mice [1]; drug 1 0.1 mg/kg PO): 6992.5 ± 693.1 | % DECREASE ACTIVITY REL TO VEH + AMPH (mice [1]; drug 1 1 mg/kg PO): 62% ^⋄ | TOTAL ACTIVITY POST-AMPHETAMINE (AUC) (mice [1]; drug 1 1 mg/kg PO): 4650.0 ± 628.9 | % DECREASE ROTATIONS ([2]; drug 1 0.1 mg/kg PO): 51% ^⋄ * | % DECREASE ROTATIONS ([2]; drug 1 1 mg/kg PO): 60% ^⋄ * | alpha-2A receptor activity (alpha-2A receptor): lack significant alpha-2A receptor activity

O=C1c2ccccc2CC[C@H]1Cc1c[nH]c(=S)[nH]1 [Compound E]
% DECREASE ACTIVITY REL TO VEH + AMPH (mice [1]; drug 1 0.01 mg/kg PO): 15% * | TOTAL ACTIVITY POST-AMPHETAMINE (AUC) (mice [1]; drug 1 0.01 mg/kg PO): 11419.2 ± 550.4 | % DECREASE ACTIVITY REL TO VEH + AMPH (mice [1]; drug 1 0.03 mg/kg PO): 58% ^⋄ | TOTAL ACTIVITY POST-AMPHETAMINE (AUC) (mice [1]; drug 1 0.03 mg/kg PO): 5616.8 ± 618.2 | % DECREASE ACTIVITY REL TO VEH + AMPH (mice [1]; drug 1 0.1 mg/kg PO): 66% ^⋄ | TOTAL ACTIVITY POST-AMPHETAMINE (AUC) (mice [1]; drug 1 0.1 mg/kg PO): 4623.8 ± 1166.7 | % DECREASE ACTIVITY REL TO VEH + AMPH (mice [1]; drug 1 1 mg/kg PO): 49% ^⋄ * | TOTAL ACTIVITY POST-AMPHETAMINE (AUC) (mice [1]; drug 1 1 mg/kg PO): 6867.3 ± 979.3 | % DECREASE ACTIVITY REL TO VEH + AMPH (mice [1]; drug 1 10 mg/kg PO): 55% ^⋄ | TOTAL ACTIVITY POST-AMPHETAMINE (AUC) (mice [1]; drug 1 10 mg/kg PO): 6026.0 ± 1007.9 | TOTAL ACTIVITY POST-COCAINE (AUC) (mice [3]; drug 1 0.01 mg/kg PO): 5036.5 ± 464.2 | TOTAL ACTIVITY POST-COCAINE (AUC) (mice [3]; drug 1 0.03 mg/kg PO): 5033.5 ± 503.8 | TOTAL ACTIVITY POST-COCAINE (AUC) (mice [3]; drug 1 0.1 mg/kg PO): 6263.0 ± 436.6 | TOTAL ACTIVITY POST-COCAINE (AUC) (mice [3]; drug 1 0.3 mg/kg PO): 3662.1 ± 1458.2 | % DECREASE ACTIVITY (mice [3]; drug 1 0.01 mg/kg PO): 52% ^⋄ * | % DECREASE ACTIVITY (mice [3]; drug 1 0.03 mg/kg PO): 52% ^⋄ * | % DECREASE ACTIVITY (mice [3]; drug 1 0.1 mg/kg PO): 40% ^⋄ * | % DECREASE ACTIVITY (mice [3]; drug 1 0.3 mg/kg PO): 65% ^⋄ | % DECREASE ROTATIONS ([2]; drug 1 0.3 mg/kg PO): 58% ^⋄ * | alpha-2A receptor activity (alpha-2A receptor): lack significant alpha-2A receptor activity

Clc1cccc(CNC2=NCCN2)c1Cl [Compound F]
% DECREASE ACTIVITY REL TO VEH + AMPH (mice [1]; drug 1 0.03 mg/kg IP): 26% ^⋄ * | TOTAL ACTIVITY POST-AMPHETAMINE (AUC) (mice [1]; drug 1 0.03 mg/kg IP): 9933.0 ± 1898.7 | % DECREASE ACTIVITY REL TO VEH + AMPH (mice [1]; drug 1 0.3 mg/kg IP): 29% ^⋄ * | TOTAL ACTIVITY POST-AMPHETAMINE (AUC) (mice [1]; drug 1 0.3 mg/kg IP): 9442.3 ± 1306.7 | % DECREASE ACTIVITY REL TO VEH + AMPH (mice [1]; drug 1 1 mg/kg IP): 45% ^⋄ | TOTAL ACTIVITY POST-AMPHETAMINE (AUC) (mice [1]; drug 1 1 mg/kg IP): 7437.8 ± 1812.4 | % DECREASE ACTIVITY REL TO VEH + AMPH (mice [1]; drug 1 3 mg/kg IP): 62% ^⋄ | TOTAL ACTIVITY POST-AMPHETAMINE (AUC) (mice [1]; drug 1 3 mg/kg IP): 5169.0 ± 1481.4 | alpha-2A receptor activity (alpha-2A receptor): lack significant alpha-2A receptor activity

O=C(CCCN1CCC(O)(c2ccc(Cl)cc2)CC1)c1ccc(F)cc1 [Haloperidol, reference compound]
% DECREASE ACTIVITY REL TO VEH + AMPH (mice [1]; drug 1 0.2 mg/kg IP): 91% ^⋄ * | TOTAL ACTIVITY POST-AMPHETAMINE (AUC) (mice [1]; drug 1 0.2 mg/kg IP): 1123.2 ± 280.1
